Key:
[1] = system: Aβ (1-40) secretion by CHO7W cells (stably transfected with human APP751 wt cDNA); test: Inhibition of Aβ(1-40) secretion (ELISA, cellular supernatants); assay type: cell-based; conditions: Aβ 1-40 ELISA
Description: To quantitate Aβ secretion ELISA-based method was used. The assay consists in detection of antigen by selective monoclonal anti-Aβ-antibodies at two different epitopes forming a “Sandwich-complex”, that is detected by colorimetric measure due to the binding of a secondary antibody conjugated with peroxidase that catalyses the conversion of a substrate or chromogen, TMB, into a coloured product, directly proportional to the peptide quantity in the sample. The Aβ production has been analyzed by ELISA, using a colorimetric commercial kit: Immunoassay Kit Human β Amyloid 1-40 (Biosource).
Aβ (1-40) were quantified from cellular supernatants. An APP-transfected cell line has been employed for the experiments: CHO7W (stably transfected with human APP751 wt cDNA). The cells were grown in a culture medium consisting of DMEM supplemented with 2% Fetal bovine serum, 1% penicillin-streptomycin, 1% L-glutamine and 200 μg/ml G418. Cells are seeded in 96-well culture microplate, at 5000 cells/well and treatment with different compounds at different concentrations is performed 24 hour after seeding.
OM99-2 (H-5108, Bachem), a BACE inhibitor, was used as Aβ secretion reduction positive control in all the Aβ secretion studies. The cells were treated with this compound at 3 μM concentration, culture media were collected at 24 hours.

[2] = system: SH-SY5Y human neuroblastoma cells; test: Toxicity: LDH activity release in SH-SY5Y cells; assay type: cell-based; conditions: 24 h; for Maximum concentration tested for toxicity: increasing concentrations from 1 μM up to 1 mM
Procedure: The potential effects on cell viability of the assayed compounds are assayed in SH-SY5Y human neuroblastoma cells, by quantification of Lactate dehydrogenase (LDH) activity release. SH-SY5Y human neuroblastoma cells are seeded into 96-well culture plates at 10^4 cells/well. The medium is then removed and the cells incubated with different concentrations of the compounds during 24 h. The compounds are tested at increasing concentrations starting from 1 μM, in fresh culture medium, in order to find the minimum concentration at which the compounds are toxic, up to a maximum of 1 mM. After 24 h, the medium is removed and cells attached to the bottom of the well are lysed by adding 50 μl of Krebs-Hepes; Triton X-100 1% during 5 minutes at room temperature. For LDH release quantification, the Roche cytotoxicity detection kit (Cat.
No. 11 644 793 001) is used. The LDH activity is measured by its absorbance at 492 nm with reference wavelength 620 nm.
In Table 1, for each compound the maximum concentration at which toxicity was tested is indicated in the second column. In the third column, it is indicated whether at this maximum concentration the compound was toxic or not. All the compounds, with the exception of Compound 3, resulted non-toxic at the concentration for which activity was found, in most of the cases even at a 1000-fold concentration. Thus, the compounds may be considered non-toxic.

[3] = Chelating ability with Zn (II) (absorbance spectra); assay type: physicochemical; conditions: for Ability to complex Zn(II): PBS 10 mM, pH 7.4, FIGS. 8-11; for Dissociation grade / Stoichiometry / ε approx.: Zn (II) complex, pH 7.4, expecting time 24 h (4, 7) or 4 h (8, 10)
Procedure: FIG. 8 represents the absorbance spectra of the complex Zn(II)-Compound 4. Concentration 200 μM, PBS 10 mM, pH 7.4.
Concentration 180 μM, PBS 10 mM, pH 7.4.
Concentration 100 μM, PBS 10 mM, pH 7.4.
Concentration 20 μM, PBS 10 mM, pH 7.4. […]

[4] = system: SH-SY5Y human neuroblastoma cells; test: Protection against 6-OHDA-induced cell death, condition A (10% foetal bovine serum); assay type: cell-based; conditions: preincubated 2 hours, 6-OHDA 75 μM 16 hours, read-out: Protect. 6-OHDA (+ FBS) (minimum concentration with neuroprotective effect)
Description: The aim of this experiment is to determine the protective effect of the compounds of formula (1) against the toxicity caused by 6-OHDA. This toxin induces a cell death similar to which occurs in Parkinson's disease, destroying dopaminergic neurons (“MPTP and 6-hydroxydopamine-induced neurodegeneration as models for Parkinson's disease: neuroprotective strategies”; Grunblatt E, et al.; J Neurol. 2000 Apr; 247 Suppl 2:II95-102).
Two or three days before the experiment, the SH-SY5Y human neuroblastoma cells are seeded into 96-well culture plate at a density of 10^4 cells/well. Cells are exposed to the treatment with 6-OHDA and, finally, cell death is measured by LDH quantification. As positive control we used NAC.
• A) NAC and the compound of formula (I) are preincubated during 2 hours before the treatment with 6-OHDA 75 μM during 16 hours. The assay is performed in medium containing 10% Foetal bovine serum.
For each compound the minimum concentration of compound of formula (I) at which a neuroprotective effect is shown.

SH-SY5Y cells = test: Neuroprotection against Aβ25-35 toxicity (LDH assay); assay type: cell-based; conditions: Homo sapiens, pre-treated 1 hour, 200 μM Aβ25-35 24 hours, read-out: Protect. beta-Amyloid25-35 (minimum concentration showing neuroprotection)
Procedure: In order to evaluate potential neuroprotection of compounds, SH-SY5Y cells, cultured in 96-well plates, were pre-treated for 1 hour with the compound at different concentrations and then exposed 24 hours to 200 μM Aβ25-35 (Neosystem) to induce extensive oxidative stress and cell death. The ability of the compound of protecting against this toxicity is then evaluated by measuring intracellular LDH, using the colorimetric LDH assay.
It is widely accepted that the neurotoxic activity of Aβ resides within amino acids 25-35 (see e.g. Yankner B A et al., (1990) Neurotrophic and neurotoxic effects of amyloid β protein: reversal by tachykinin neuropeptides; Science 250:279-282).

[5] = Zn (II) complex 1:2 (ML2), pH 7.4, expecting time 24 h (7) or 4 h (8, 10)

SMILES	minimal effective concentration ([1]; read-out: Inhibition secretion beta-amyloid (minimum concentration)) [nM]	Maximum concentration tested for toxicity [2] [mM]	Toxic at maximum concentration tested (Yes/No) ([2]; at 1 mM)	Ability to complex Zn(II) [3]	Formation constant [3, 5]	Dissociation grade [3]	Stoichiometry [3]	ε approx. [3] [L/mol/cm]	minimal effective concentration [4] [µM]	Inhibition secretion beta-amyloid (minimum concentration) [1] [mM]	Formation constant ([3]; Zn (II) complex 1:1 (ML), pH 7.4, expecting time 24 h)	minimal effective concentration (SH-SY5Y cells) [µM]	Toxic at maximum concentration tested (Yes/No) ([2]; at 1 μM)
CC(C)Sc1cc(/C=N/O)nc2c1ccc1cccnc12 [Compound 7, 4-Isopropylsulfanyl-[1,10]phenanthroline-2-carbaldehyde oxime]	1	1	Yes	complexed with Zn(II) to an extent	2.2 ± 0.6 · 10^10 l^2/mol^2	13.4 ± 0.7	1:2 (ML2)	~840	0.05	–	–	–	–
CSc1cc(/C=N/O)nc2c1ccc1cccnc12 [Compound 4, 4-Methylsulfanyl-[1,10]phenanthroline-2-carbaldehyde oxime]	–	1	Yes	complexed with Zn(II) to an extent	–	46 ± 7	1:1 (ML)	~1000	0.05	0.05	2.2 ± 0.6 · 10^4 l/mol	0.5	–
COCCOc1cc(/C=N/O)nc2c1ccc1cccnc12 [Compound 8, 4-(2-Methoxy-ethoxy)-[1,10]phenanthroline-2-carbaldehyde oxime]	–	1	No	complexed with Zn(II) to an extent	1.4 ± 0.6 · 10^11 l^2/mol^2	7.7 ± 0.6	1:2 (ML2)	~7100	0.05	1	–	0.5	–
CCN(CC)CCOc1cc(/C=N/O)nc2c1ccc1cccnc12 [Compound 10, 4-(2-Diethylamino-ethoxy)-[1,10]phenanthroline-2-carbaldehyde oxime]	–	0.001	–	complexed with Zn(II) to an extent	1.7 ± 0.4 · 10^13 l^2/mol^2	3.7 ± 0.6	1:2 (ML2)	~9400	0.05	1	–	0.5	Yes

Reference: US8592446B2, “[1,10]-phenanthroline derivatives for the treatment of neurodegenerative or haematological diseases” (Noscira, S.A., priority 2007, dated 2013)
